Test results reported in PMC9088311, “Cyclic Thiosulfonates for Thiol-Mediated Uptake: Cascade Exchangers, Transporters, Inhibitors” (JACS Au, 2022).
Where “and” joins values, the source holds several entries; their conditions need not be identical. Equal entries are not always repeated. Where two headings read alike, the source gives them in different places. Marks after values point to notes of the source that are not given here.

System: lentivirus with D614G SC2 spike protein, A549 cells overexpressing ACE2 and TMPRSS2
Assay type: cell-based, SARS-CoV-2
Set-up: key to qualitative inhibition of SC2 uptake (heatmap): –: −: inactive; ++: qualitative inhibition of SC2 uptake
Settings: for IC50: read-out: IC50 of SC2 lentivector entry

CC(C)(C)OC(=O)NCCNC(=O)O[C@H]1CSS(=O)(=O)C[C@H]1O[Si](C)(C)C(C)(C)C (racemic) [Compound 50]
VE, vector entry (inhibitor 5 μM (1 h), lentivirus 6 h, 3 days expression, n = 3, ±SD): 100 ± 40%

O=S1(=O)C[C@H](O)[C@H](O)CS1 (stereo in doubt) [Compound 3, (4S,5R)-4,5-dihydroxy-1,2-dithiane-1,1-dioxide]
inhibition of SC2 lentivector entry (in words): inactive
qualitative inhibition of SC2 uptake (heatmap): ++

CC(C)(C)[Si](C)(C)OC1CS(=O)(=O)SCC1OC(=O)NCCCCCCNC(=O)OC1CSS(=O)(=O)CC1O[Si](C)(C)C(C)(C)C (stereo not drawn) [Compound 4]
VE, vector entry: 46 ± 8%
IC50: ~10 µM and ~5 µM

CC(C)(C)[Si](C)(C)O[C@@H]1CS(=O)(=O)SC[C@@H]1O [Compound 6]
VE, vector entry: 105 ± 3%

O=C1O[C@H]2CSS(=O)(=O)C[C@H]2O1 [Compound 11]
VE, vector entry: 4 ± 1%

CC1(C)O[C@H]2CSS(=O)(=O)C[C@H]2O1 [Compound 13]
VE, vector entry: 80 ± 20%

O=C(O)c1cc(SSc2ccc([N+](=O)[O-])c(C(=O)O)c2)ccc1[N+](=O)[O-] [Compound 16, 5,5’-Dithiobis(2-nitrobenzoic acid), reference compound]
VE, vector entry: >100%
inhibition of SC2 lentivector entry (in words) (5 μM): weak activation rather than inhibition

O=C(NCCCCCCNC(=O)O[C@H]1CSS(=O)(=O)C[C@H]1OCc1ccccc1)O[C@H]1CSS(=O)(=O)C[C@H]1OCc1ccccc1 [Compound 33]
VE, vector entry: 56 ± 12%
IC50: ~5 µM

CC(C)(C)OC(=O)NCCNC(=O)O[C@H]1CSS(=O)(=O)C[C@H]1O [Compound 34]
VE, vector entry: 8 ± 6%

O=C(N[C@H]1CCS(=O)(=O)SC1)N[C@H]1CCS(=O)(=O)SC1 [Compound 35]
VE, vector entry: 25 ± 3%
inhibition of SC2 lentivector entry (in words): inactivity
inhibition of SC2 lentivector entry (in words) (50 μM): high activity

CC(=O)O[C@H]1CSS(=O)(=O)C[C@H]1O [Compound 36]
VE, vector entry: 34 ± 3%

O=S(O)CC(O)C(O)CSSCC(O)C(O)CS(=O)O (stereo not drawn) [Compound 37]
VE, vector entry: 42 ± 32%

CC(C)(C)[Si](C)(C)O[C@@H]1CS(=O)(=O)SC[C@@H]1OC(=O)NCC[N+](C)(C)C [Compound 38]
VE, vector entry: 43 ± 26%

NCCNC(=O)O[C@H]1CSS(=O)(=O)C[C@H]1O [Compound 39]
VE, vector entry: 52 ± 31%

O=S(O)CC(O)C(O)CSSCCSSCC(O)C(O)CS(=O)O (stereo not drawn) [Compound 40]
VE, vector entry: 64 ± 25%

O=C(NCCCCCCNC(=O)O[C@H]1CSS(=O)(=O)C[C@H]1O)O[C@H]1CSS(=O)(=O)C[C@H]1O [Compound 41]
VE, vector entry: >100 ^f %
inhibition of SC2 lentivector entry (in words): inactive

CC(C)(C)[Si](C)(C)O[C@H]1CS(=O)(=O)SC[C@H]1OC(=O)NCCNC(=O)CC(O)(CC(=O)NCCNC(=O)O[C@H]1CSS(=O)(=O)C[C@H]1O[Si](C)(C)C(C)(C)C)C(=O)NCCNC(=O)O[C@@H]1CSS(=O)(=O)C[C@@H]1O[Si](C)(C)C(C)(C)C (stereo partly drawn) [Compound 42]
VE, vector entry: 97 ± 15%

CCCNC(=O)O[C@H]1CSS(=O)(=O)C[C@H]1O[Si](C)(C)C(C)(C)C [Compound 43]
VE, vector entry: 99 ± 12%
inhibition of SC2 lentivector entry (in words): inactivity

C#CCNC(=O)CC[C@H](NC(=O)COCCNC(=O)O[C@H]1CSS(=O)(=O)C[C@H]1O[Si](C)(C)C(C)(C)C)C(=O)NCCOCCNC(=O)O[C@H]1CSS(=O)(=O)C[C@H]1O[Si](C)(C)C(C)(C)C [Compound 44]
VE, vector entry: 103 ± 12%

O=C(O)Cn1[se]c2ccccc2c1=O [Compound 45, reference compound]
VE, vector entry: 31 ± 3%
qualitative inhibition of SC2 uptake (heatmap): ++
inhibition of SC2 lentivector entry (in words) (50 μM): more active and nontoxic

O=c1c2ccccc2[se]n1-c1ccccc1 [Compound 46, Ebselen, reference compound]
VE, vector entry: 65 ± 13%
inhibition of SC2 lentivector entry (in words) (50 μM): more toxic than active

CCN1C(=O)C2SSSSC1C(=O)N2CC(=O)O (stereo not drawn) [Compound 47, reference compound]
VE, vector entry: 83 ± 12%
qualitative inhibition of SC2 uptake (heatmap): –

CC(=O)/C=C1/C(=O)N(C)c2ccccc21 [Compound 48, super-cinnamaldehyde, reference compound]
VE, vector entry: >100%
inhibition of SC2 lentivector entry (in words) (5 μM): weak activation rather than inhibition

CC#CI1OC(=O)c2ccccc21 [Compound 49, reference compound]
VE, vector entry: >100%
inhibition of SC2 lentivector entry (in words): did not inhibit
qualitative inhibition of SC2 uptake (heatmap): –
